IC50 data for 26 compounds are collected here from patent publication US20210130308A1, “MODULATORS OF EUKARYOTIC INITIATION FACTOR 2” (Denali Therapeutics Inc., priority 2018, published 2021).

For the first experiment, the system named is ATF4 translation (ISR pathway activation). In words: ATF4 Nano Luciferase reporter integrated stress response (ISR) assay in H4 ATF4-NLuc (clone 17) cells. As to conditions: H4 ATF4-NLuc (clone 17) cells; compounds 30 minutes at 37 degree Celsius, then 50 um sodium arsenite for 6 additional hours; luminescence readout; read-out: IC50. It counts as cell-based, human. From the text: Cellular stress leads to activation of the integrated stress response pathway through one of four eukaryotic initiation factor 2α kinases and halts global translation, while allowing for the translation of select transcripts like ATF4 (activating transcription factor 4) that are important for the response to cellular stress. During normal conditions, small open reading frames (ORFs) in the 5′ UTR of ATF4 occupy the ribosome and prevent translation of the coding sequence of ATF4. During stress conditions however, the ribosome scans past these upstream ORFs and preferentially begins translation at the coding sequence of ATF4. In this way, the translation, and thus protein level of ATF4 is a readout of ISR pathway activation. Thus, a fusion of the uORFs and the beginning of the coding sequence of ATF to a common cellular reporter like nano-luciferase allows for a sensitive and high-throughput readout of ISR pathway activity.
Compounds as provided herein were tested in the following assay. The ATF4 Nano Luciferase reporter was constructed by fusing the human full length 5′ untranslated region (5′-UTR) and a small portion of the coding sequence of the ATF4 gene upstream of the Nano Luciferase (NLuc) coding sequence lacking it's start codon. Specifically, nucleotides +1 through +364 (relative to the transcriptional start site) of ATF4 transcript variant 2 (NCBI NM_182810.2) flanked 5′ by EcoRI and 3′ by BamHI restriction enzyme sites were synthesized and cloned into the EcoRI/BamHI cloning sites of pLVX-EF1a-IRES-Puro lentivirus vector (Clontech). […]. H4 cells were selected with […] Puromycin, and clonal cell lines generated by limiting dilution. We utilized this cell line to generate an integrated stress response (ISR) assay to evaluate the activity of ISR pathway inhibitors via luminescence readout. The H4 ATF4-NLuc (clone 17) cell line is plated at a density of […] in 96-well or 384-well respectively in DMEM+10% fetal bovine serum. 24-hours later test compounds diluted in dimethyl sulfoxide (DMSO) are added for 30 minutes at 37 degree Celsius, followed by ISR pathway activation with 50 um sodium arsenite aqueous solution for 6 additional hours. Nano Glo luciferase reagent (N1150, Promega) is added according to manufacturer instructions and the luminescence signal (corresponding to the level of ATF4 translation and thus ISR pathway activation) is read with a standard plate reader with luminescence detection capabilities.
In the table below, activity of the tested compounds is provided in Table 3 as follows: +++=IC50<1 μM; ++=IC50 1-10 μM; +=IC50>10 μM.
On the technique in general: Reporter assays use an easily measured gene product as a stand-in for the process of interest.
By IC50 is commonly meant the midpoint of a concentration-inhibition curve. With `N#CC1CC(OCC(=O)NC23CC(NC(=O)COc4ccc(Cl)cc4)(C2)C3)C1` (stereo not drawn) [Example 31, 2-(4-chlorophenoxy)-N-[3-[[2-(3-cis-cyanocyclobutoxy)acetyl]amino]-1-bicyclo[1.1.1]pentanyl]acetamide], the IC50 is less than 1000 nM.

Still in this experiment, the particulars now being: Homo sapiens, 0.5 h.
Regarding `O=C(COc1cccc(Cl)c1F)NC12CC(NC(=O)COC3CCC3)(C1)C2` [Example 13, 2-(3-chloro-2-fluoro-phenoxy)-N-[3-[[2-(cyclobutoxy)acetyl]amino]-1-bicyclo[1.1.1]pentanyl]acetamide], the concentration for half-maximal inhibition (IC50) is 1000 to 10000 nM.

`O=C(COC1CCN(CC(F)(F)F)C1)NC12CC(NC(=O)c3ccc4cc(C(F)(F)F)ccc4n3)(C1)C2` (centres unmarked) [Example 73] yielded a concentration for half-maximal inhibition (IC50) of less than 1000 nM.

The experiment is the same for the next values; noted with them: Homo sapiens, 0.5 h; H4 ATF4-NLuc (clone 17) cells; compounds 30 minutes at 37 degree Celsius, then 50 um sodium arsenite for 6 additional hours; luminescence readout; read-out: IC50.
For the compound `O=C(COc1ccc(Cl)c(F)c1)NC1CCN(c2cnn(C3CC(OC(F)(F)F)C3)c2)CC1` (stereo not drawn) [Example 46, 2-(4-chloro-3-fluorophenoxy)-N-(1-(1-(3-cis-(trifluoromethoxy)cyclobutyl)-1H-pyrazol-4-yl)piperidin-4-yl)acetamide], the IC50 is less than 1000 nM.

Turning to `O=C(COc1ccc(C(F)(F)F)cc1)NC12CC(N3CCN(C4CC(OC(F)(F)F)C4)C3=O)(C1)C2` (centres unmarked) [Example 74], the IC50 was less than 1000 nM.

As to `O=C(COc1ccc(Cl)c(F)c1)NC12CC(NC(=O)CO[C@H]3C[C@@H](OC(F)(F)F)C3)(C1)C2` [Example 37, 2-(4-chloro-3-fluoro-phenoxy)-N-[3-[[2-[3-cis-(trifluoromethoxy)cyclobutoxy]acetyl]amino]-1-bicyclo[1.1.1]pentanyl]acetamide], the IC50 was less than 1000 nM.

On to `O=C(COc1ccc(Cl)c(F)c1)NC1CC(OCCOC2CC(OC(F)(F)F)C2)C1` (single isomer, unassigned) [42 (isomer 1), 2-(4-chloro-3-fluoro-phenoxy)-N-[3-[2-[3-cis-(trifluoromethoxy)cyclobutoxy]ethoxy]-cis-cyclobutyl]acetamide], for which the IC50 was less than 1000 nM.

Take `O=C(CO[C@H]1C[C@@H](OC(F)(F)F)C1)NC1CN(C(=O)COC2CC(OC(F)(F)F)C2)C1` (stereo partly drawn) [Example 25, 2-[3-cis (trifluoromethoxy)cyclobutoxy]-N-[1-[2-[3-cis-(trifluoromethoxy)cyclobutoxy]acetyl]azetidin-3-yl]acetamide]: the half-maximal inhibitory concentration (IC50) is 1000 to 10000 nM.

Regarding `O=C(COc1ccc(Cl)c(F)c1)N[C@@H]1C[C@@H]2[C@H](C1)[C@H]2c1nnc(C2CC(OC(F)(F)F)C2)o1` (stereo partly drawn) [Example 43, 2-(4-chloro-3-fluoro-phenoxy)-N-[(1R,5S)-6-[5-[3-(trifluoromethoxy)cyclobutyl]-1,3,4-oxadiazol-2-yl]-3-bicyclo[3.1.0]hexanyl]acetamide], the 50% inhibitory concentration (IC50) is less than 1000 nM.

For `O=C(COC1CC(OC(F)(F)F)C1)NC12CC(NC(=O)c3nc4cc(Cl)ccc4s3)(C1)C2` (stereo not drawn) [Example 52, 5-chloro-N-[1-[[2-[3-cis-(trifluoromethoxy)cyclobutoxy]acetyl]amino]-3-bicyclo[1.1.1]pentanyl]-1,3-benzothiazole-2-carboxamide], the 50% inhibitory concentration (IC50) was less than 1000 nM.

For the compound `O=C(COc1ccc(Cl)c(F)c1)NC12CC(NC(=O)COC3CC(C(F)(F)F)C3)(C1)C2` (single isomer, unassigned) [12 (first eluting isomer), 2-(4-chloro-3-fluorophenoxy)-N-(3-(2-(3-(trifluoromethyl)cyclobutoxy)acetamido)bicyclo[1.1.1]pentan-1-yl)acetamide], the IC50 is less than 1000 nM.

Take `CC(C)OC1CC(OCC(=O)NC23CC(NC(=O)c4ccc5cc(C(F)(F)F)ccc5n4)(C2)C3)C1` (stereo not drawn) [Example 70, N-(3-(2-(3-cis-isopropoxycyclobutoxy)acetamido)bicyclo[1.1.1]pentan-1-yl)-6-(trifluoromethyl)quinoline-2-carboxamide]: the IC50 was less than 1000 nM.

Turning to `N#CC1CC(OCC(=O)N2CCC3(CC2)CC(NC(=O)COc2ccc(Cl)c(F)c2)C3)C1` (centres unmarked) [Example 14, 2-(4-chloro-3-fluoro-phenoxy)-N-[7-[2-(3-cyanocyclobutoxy)acetyl]-7-azaspiro[3.5]nonan-2-yl]acetamide], the half-inhibitory concentration (IC50) is less than 1000 nM.

Consider `COC1CC(OCC(=O)NC23CC(NC(=O)COc4ccc(Cl)c(F)c4)(C2)C3)C1` (stereo not drawn) [Example 35, 2-(4-chloro-3-fluoro-phenoxy)-N-[3-[[2-(3-cis-methoxycyclobutoxy)acetyl]amino]-1-bicyclo[1.1.1]pentanyl]acetamide], for which the IC50 was less than 1000 nM.

Turning to `O=C(COC1CC(OC(F)(F)F)C1)N[C@H]1CC[C@H](c2nnc(C3CC(OC(F)(F)F)C3)o2)CC1` (stereo partly drawn) [Example 30, 2-[3-cis-(trifluoromethoxy)cyclobutoxy]-N-[4-[5-[3-cis-(trifluoromethoxy)cyclobutyl]-1,3,4-oxadiazol-2-yl]cyclohexyl]acetamide], the half-inhibitory concentration (IC50) is less than 1000 nM.

On to `CO[C@@H]1CN(CCOC2CC(OC(F)(F)F)C2)CCC1NC(=O)COc1ccc(Cl)c(F)c1` (stereo partly drawn) [Example 49, 2-(4-chloro-3-fluoro-phenoxy)-N-[trans-3-methoxy-1-[2-[3-cis-(trifluoromethoxy)cyclobutoxy]ethyl]-4-piperidyl]acetamide], for which the 50% inhibitory concentration (IC50) is less than 1000 nM.

In the case of `O=C(COC1CC(C(F)(F)F)C1)NC12CC(NC(=O)c3ccc4cc(C(F)(F)F)ccc4n3)(C1)C2` (centres unmarked) [Example 67, 6-(trifluoromethyl)-N-(3-(2-(3-(trifluoromethyl)cyclobutoxy)acetamido)bicyclo[1.1.1]pentan-1-yl)quinoline-2-carboxamide], the IC50 is less than 1000 nM.

`O=C(COc1ccc(Cl)c(F)c1)NC1CCN(CCOC2CC(OC(F)(F)F)C2)C(=O)C1` (stereo not drawn) [Example 56, 2-(4-chloro-3-fluorophenoxy)-N-(2-oxo-1-(2-(3-cis-(trifluoromethoxy)cyclobutoxy)ethyl)piperidin-4-yl)acetamide]: the half-inhibitory concentration (IC50) is less than 1000 nM.

As for `O=C(COc1ccc(Cl)c(F)c1)NC1CC2(C1)CN(C(=O)COC1CC(n3nccn3)C1)C2` (centres unmarked) [Example 18, 2-(4-chloro-3-fluoro-phenoxy)-N-[2-[2-[3-(triazol-2-yl)cyclobutoxy]acetyl]-2-azaspiro[3.3]heptan-6-yl]acetamide], the IC50 is less than 1000 nM.

For `O=C(COc1ccc(Cl)c(F)c1)NC1CC2(CCN(C(=O)COC3CC(C(F)(F)F)C3)CC2)C1` (centres unmarked) [Example 16, 2-(4-chloro-3-fluoro-phenoxy)-N-[7-[2-[3-(trifluoromethyl)cyclobutoxy]acetyl]-7-azaspiro[3.5]nonan-2-yl]acetamide], the half-maximal inhibitory concentration (IC50) was less than 1000 nM.

For the compound `N#CC1CC(OCC(=O)NC23CC(NC(=O)COc4ccc(Cl)cc4)(C2)C3)C1` (centres unmarked) [Example 6, 2-(4-chlorophenoxy)-N-(3-(2-(3-cyanocyclobutoxy)acetamido)bicyclo[1.1.1]pentan-1-yl)acetamide], the IC50 was less than 1000 nM.

In the case of `O=C(COC1CC(OC(F)(F)F)C1)NC1CN(c2nnc(COc3ccc(Cl)c(F)c3)o2)C1` (stereo not drawn) [Example 22, N-[1-[5-[(4-chloro-3-fluoro-phenoxy)methyl]-1,3,4-oxadiazol-2-yl]azetidin-3-yl]-2-[3-cis-(trifluoromethoxy)cyclobutoxy]acetamide], the IC50 was less than 1000 nM.

Turning to `O=C(COc1ccc(Cl)c(F)c1)NCC1CCN(C(=O)COC2CC(OC(F)(F)F)C2)C1` (stereo not drawn) [Example 60, 2-(4-chloro-3-fluorophenoxy)-N-((1-(2-(3-cis-(trifluoromethoxy)cyclobutoxy)acetyl)pyrrolidin-3-yl)methyl)acetamide], the IC50 was less than 1000 nM.

For the compound `O=C(COC1CC(OC(F)(F)F)C1)NC1CC2(C1)CC(c1nnc(C3CC(OC(F)(F)F)C3)o1)C2` (stereo not drawn) [Example 32, 2-[3-cis-(trifluoromethoxy)cyclobutoxy]-N-[6-[5-[3-cis-(trifluoromethoxy)cyclobutyl]-1,3,4-oxadiazol-2-yl]spiro[3.3]heptan-2-yl]acetamide], the IC50 was less than 1000 nM.

For the compound `O=C(COc1ccc(Cl)c(F)c1)NC12CC(NC(=O)COC3CC(OC(F)F)C3)(C1)C2` (stereo not drawn) [Example 34, 2-(4-chloro-3-fluoro-phenoxy)-N-[3-[[2-[3-cis-(difluoromethoxy)cyclobutoxy]acetyl]amino]-1-bicyclo[1.1.1]pentanyl]acetamide], the 50% inhibitory concentration (IC50) is less than 1000 nM.

`O=C(COc1ccc(Cl)cc1)NC12CC(NC(=O)COC3CC4(CCC4)C3)(C1)C2` [Example 4, 2-(4-chlorophenoxy)-N-(3-(2-(spiro[3.3]heptan-2-yloxy)acetamido)bicyclo[1.1.1]pentan-1-yl)acetamide]: the IC50 is less than 1000 nM.
